Laboratory results as given in ChEMBL document CHEMBL5247592, “Discovery of novel VEGFR-2-PROTAC degraders based on the localization of lysine residues via recruiting VHL for the treatment of gastric cancer” (Eur J Med Chem, 2022).
The source made the active and inactive calls. The rule behind the calls is not given here.

Legend:
HGC-27 [1] = test: Induction of cell cycle arrest in human HGC-27 cells assessed as G2/M phase cells at 1 uM incubated for 24 hrs by PI staining based flow cytometric analysis (reference value: 13.3%); type: functional
[2] = Cytotoxicity against HEK293T cells assessed as inhibition of cell growth incubated for 72 hrs by MTT assay; type: toxicity, cell-based, HEK-293T; conditions: human
[3] = molecular target: T1, von Hippel-Lindau disease tumor suppressor/Vascular endothelial growth factor receptor 2 (Homo sapiens, UniProt P35968+P40337); test: PROTAC activity at VHL/VEGFR2 in human HGC-27 cells assessed as […] at 1 uM measured upto 24 hrs in the presence of cycloheximide by Western blot analysis; type: cell-based
HGC-27 [4] = test: Inhibition of cell migration in human HGC-27 cells at 0.033 to 3.33 uM by wound healing assay; type: functional, cell-based; conditions: dose 0.033-3.33 µM, time <= 24.0 hrs, TDE = time-dependent effect
[5] = molecular target: T1, von Hippel-Lindau disease tumor suppressor/Vascular endothelial growth factor receptor 2; test: PROTAC activity at VHL/VEGFR2 in HUVEC cells assessed as reduction in VEGFR2 protein level at 10 uM incubated for 24 hrs by Western blot analysis; type: cell-based
[6] = molecular target: T1, von Hippel-Lindau disease tumor suppressor/Vascular endothelial growth factor receptor 2; test: PROTAC activity at VHL/VEGFR2 in human HGC-27 cells assessed as induction of VEGFR2 degradation at 1 uM measured after 8 hrs by Western blot analysis relative to control; type: cell-based
HGC-27 [7] = test: Induction of apoptosis in human HGC-27 cells assessed as necrotic cells at 0.33 uM incubated for 24 hrs by Annexin V-FITC/PI staining based analysis (reference value: 0.65 %); type: functional
[8] = molecular target: T1, von Hippel-Lindau disease tumor suppressor/Vascular endothelial growth factor receptor 2; test: PROTAC activity at VHL/VEGFR2 in human HGC-27 cells assessed as residual activity by measuring VEGFR2 expression level at 1 uM incubated for 24 hrs followed by compound washout and measured after 36 hrs by Western blot analysis relative to control; type: cell-based
HGC-27 [9] = test: Induction of apoptosis in human HGC-27 cells assessed as viable cells at 3.3 uM incubated for 24 hrs by Annexin V-FITC/PI staining based analysis (reference value: 95.3%); type: functional; conditions: read-out: Activity
[10] = molecular target: T1, von Hippel-Lindau disease tumor suppressor/Vascular endothelial growth factor receptor 2; test: PROTAC activity at VHL/VEGFR2 in human HGC-27 cells assessed as reduction in VEGFR2 protein level at 1 uM by Western blot analysis; type: cell-based; conditions: time 12-36 hrs, TDE = time-dependent effect
HGC-27 [11] = test: Induction of apoptosis in human HGC-27 cells assessed as necrotic cells at 3.3 uM incubated for 24 hrs by Annexin V-FITC/PI staining based analysis (reference value: 0.65 %); type: functional
[12] = Effect on VEGFR2 mRNA expression in human HGC-27 cells at 0.033 uM incubated for 24 hrs by qPCR analysis relative to control; type: functional
HGC-27 [13] = test: Induction of cell cycle arrest in human HGC-27 cells assessed as G2/M phase cells at 0.033 uM incubated for 24 hrs by PI staining based flow cytometric analysis (reference value: 13.3%); type: functional
HGC-27 [14] = test: Induction of cell cycle arrest in human HGC-27 cells assessed as G2/M phase cells at 3.33 uM incubated for 24 hrs by PI staining based flow cytometric analysis (reference value: 13.3%); type: functional
HGC-27 [15] = test: Induction of cell cycle arrest in human HGC-27 cells assessed as G0/G1 phase cells at 3.33 uM incubated for 24 hrs by PI staining based flow cytometric analysis (reference value: 47.4%); type: functional
HGC-27 [16] = test: Induction of apoptosis in human HGC-27 cells assessed as early apoptotic cells at 0.33 uM incubated for 24 hrs by Annexin V-FITC/PI staining based analysis (reference value: 1.7 %); type: functional
HGC-27 [17] = test: Inhibition of cell migration in human HGC-27 cells measured upto 24 hrs by wound healing assay; type: functional, cell-based; conditions: dose 0.033-3.33 µM
[18] = molecular target: T1, von Hippel-Lindau disease tumor suppressor/Vascular endothelial growth factor receptor 2; test: PROTAC activity at VHL/VEGFR2 in human HGC-27 cells assessed as induction of VEGFR2 degradation at 1 uM measured after 24 hrs by Western blot analysis relative to control; type: cell-based
HGC-27 [19] = test: Inhibition of cell migration in human HGC-27 cells assessed as suppression of cell migration at 3.3 uM incubated for 24 hrs by wound healing assay relative to control; type: functional
HGC-27 [20] = test: Induction of apoptosis in human HGC-27 cells assessed as early apoptotic cells at 1 uM incubated for 24 hrs by Annexin V-FITC/PI staining based analysis (reference value: 1.7 %); type: functional
[21] = Cytotoxicity against HUVEC cells assessed as inhibition of cell growth incubated for 72 hrs by MTT assay; type: toxicity, cell-based; conditions: human
HGC-27 [22] = test: Induction of apoptosis in human HGC-27 cells assessed as viable cells at 1 uM incubated for 24 hrs by Annexin V-FITC/PI staining based analysis (reference value: 95.3%); type: functional; conditions: read-out: Activity

T1 sequence (P35968 20-1356 limits assumed): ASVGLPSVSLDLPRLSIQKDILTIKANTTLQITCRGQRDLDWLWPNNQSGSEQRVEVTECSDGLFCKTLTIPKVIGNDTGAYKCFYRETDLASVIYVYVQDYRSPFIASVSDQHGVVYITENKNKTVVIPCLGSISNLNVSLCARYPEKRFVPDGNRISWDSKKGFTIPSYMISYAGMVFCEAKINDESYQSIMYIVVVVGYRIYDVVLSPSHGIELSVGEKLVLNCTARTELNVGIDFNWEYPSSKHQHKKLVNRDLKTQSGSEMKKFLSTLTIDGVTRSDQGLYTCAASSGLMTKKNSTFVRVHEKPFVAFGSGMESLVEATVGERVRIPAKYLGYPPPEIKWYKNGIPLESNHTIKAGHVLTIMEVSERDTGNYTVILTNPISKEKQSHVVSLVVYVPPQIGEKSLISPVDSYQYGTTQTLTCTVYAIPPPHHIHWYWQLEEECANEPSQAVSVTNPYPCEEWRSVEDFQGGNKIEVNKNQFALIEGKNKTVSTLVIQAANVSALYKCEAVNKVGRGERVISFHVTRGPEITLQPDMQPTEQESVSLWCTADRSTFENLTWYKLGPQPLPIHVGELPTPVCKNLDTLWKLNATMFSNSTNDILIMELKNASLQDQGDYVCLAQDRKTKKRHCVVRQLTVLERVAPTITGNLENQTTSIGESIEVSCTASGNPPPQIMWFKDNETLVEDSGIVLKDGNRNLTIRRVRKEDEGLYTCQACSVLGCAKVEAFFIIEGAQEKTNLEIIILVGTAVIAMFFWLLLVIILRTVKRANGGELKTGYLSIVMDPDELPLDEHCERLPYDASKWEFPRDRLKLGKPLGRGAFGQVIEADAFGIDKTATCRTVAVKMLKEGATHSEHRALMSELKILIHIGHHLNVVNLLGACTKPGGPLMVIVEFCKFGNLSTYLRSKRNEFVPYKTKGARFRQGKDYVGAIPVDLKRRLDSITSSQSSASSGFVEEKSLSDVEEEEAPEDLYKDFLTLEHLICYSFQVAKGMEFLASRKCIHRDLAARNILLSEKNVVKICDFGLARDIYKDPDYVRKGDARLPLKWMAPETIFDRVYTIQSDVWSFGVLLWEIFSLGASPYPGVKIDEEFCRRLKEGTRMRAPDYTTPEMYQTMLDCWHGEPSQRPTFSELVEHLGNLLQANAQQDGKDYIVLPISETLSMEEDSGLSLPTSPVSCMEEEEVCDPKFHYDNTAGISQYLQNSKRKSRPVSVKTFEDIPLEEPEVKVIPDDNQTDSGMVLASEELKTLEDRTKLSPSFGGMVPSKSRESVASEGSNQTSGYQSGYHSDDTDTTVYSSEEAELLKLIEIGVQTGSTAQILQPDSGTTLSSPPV
T1 sequence (P40337 whole entry partner): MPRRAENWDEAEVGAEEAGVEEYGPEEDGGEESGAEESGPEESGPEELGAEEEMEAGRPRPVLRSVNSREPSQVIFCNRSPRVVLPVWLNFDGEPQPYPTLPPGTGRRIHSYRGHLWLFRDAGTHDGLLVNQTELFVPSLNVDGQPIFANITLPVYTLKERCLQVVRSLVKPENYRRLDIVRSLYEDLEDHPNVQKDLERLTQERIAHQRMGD

Which results are given for `Cc1ccc(NC(=O)Cn2cc(-c3ccc4c(NC(=O)c5ccc(NC(=O)CCCCCCCCC(=O)N[C@H](C(=O)N6C[C@H](O)C[C@H]6C(=O)NCc6ccc(-c7scnc7C)cc6)C(C)(C)C)cc5)n[nH]c4c3)cn2)cc1C(F)(F)F`?
Activity (HGC-27 [1]): 45.9%; IC50 at 72 h [2]: 14.5 µM; Activity [3]: Active; inhibition (HGC-27 [4]): Tde; Activity [5]: inactive; Activity [6]: 18.2%; Activity (HGC-27 [7]): 0.96%; Activity [8]: 131%; viability at 3.3 µM (HGC-27 [9]): 54%; Activity [10]: Tde; Activity (HGC-27 [11]): 0.52%; Activity [12]: 99.3%; Activity (HGC-27 [13]): 15.7%; Activity (HGC-27 [14]): 56.8%; Activity (HGC-27 [15]): 14.1%; Activity (HGC-27 [16]): 3.2%; inhibition (HGC-27 [17]): Dose-Dependent Effect; Activity [18]: 51.4%; inhibition at 3.3 µM (HGC-27 [19]): 32.7%; Activity (HGC-27 [20]): 8.6%; IC50 at 72 h [21]: 7.07 µM; viability at 1 µM (HGC-27 [22]): 76.5%
